Laboratory results published in patent EP2951180B1, “2,6,7,8 SUBSTITUTED PURINES AS HDM2 INHIBITORS” (Merck Sharp & Dohme Corp., priority 2013, dated 2014).

What follows are compounds tested against T1, HDM2 (Homo sapiens, UniProt Q00987) (assay: FRET assay (HDM2 inhibition; method not described in this part)). Details: Table 2.
T1 construct: Thioredoxin (N); made in house; host or cells: E. coli strain BL21(DE3)Rosetta
Format: binding

T1 sequence (Q00987 17-125): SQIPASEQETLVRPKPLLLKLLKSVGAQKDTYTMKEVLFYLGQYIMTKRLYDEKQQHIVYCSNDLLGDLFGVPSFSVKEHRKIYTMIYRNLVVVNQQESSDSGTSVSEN

Question: For C[C@@H](Nc1nc(C(=O)O)nc2nc(-c3cccc(Cl)c3)n(Cc3ccc(C(F)(F)F)cc3)c12)C1CCC1 [Example 2.40, 8-(3-chlorophenyl)-6-{[(1R)-1-cyclobutylethyl]amino}-7-[4-(trifluoromethyl)benzyl]-7H-purine-2-carboxylic acid], which IC50 is on record?
Answer: 30 nM

Question: How did the IC50 turn out when CNS(=O)(=O)c1ccc(-c2nc3nc(C(=O)O)nc(N[C@H](C)C4CCC4)c3n2Cc2ccc(C(F)(F)F)cc2)cc1 [Example 2.41, 6-{[(1R)-1-cyclobutylethyl]amino}-8-[4-(methylsulfamoyl)phenyl]-7-[4-(trifluoromethyl)benzyl]-7H-purine-2-carboxylic acid] was run?
Answer: 44 nM

Question: C[C@@H](Nc1nc(C(=O)O)nc2nc(C3CC3)n(Cc3ccc(Cl)cc3)c12)C1CC1 [Example 2.42, 7-(4-chlorobenzyl)-8-cyclopropyl-6-{[(1R)-1-cyclopropylethyl]amino}-7H-purine-2-carboxylic acid] was tested. Which IC50 did it give?
Answer: 265 nM

Question: With C[C@@H](Nc1nc(C(=O)O)nc2nc(Cc3ccccc3)n(Cc3ccc(Cl)cc3)c12)C1CC1 [Example 2.43, 8-benzyl-7-(4-chlorobenzyl)-6-{ [(1R)-1-cyclopropylethyl]amino}-7H-purine-2-carboxylic acid] as the compound, how does the IC50 read?
Answer: 28.1 nM

Question: Which IC50 does the source give for C[C@@H](Nc1nc(C(=O)O)nc2nc(-c3cccnc3)n(Cc3ccc(C(F)(F)F)cc3)c12)C1CC1 [Example 2.44, 6-{[(1R)-1-cyclopropylethyl]amino}-8-pyridin-3-yl-7-[4-(trifluoromethyl)benzyl]-7H-purine-2-carboxylic acid] here?
Answer: 640 nM

Question: Which IC50 does the source give for C[C@@H](Nc1nc(C(=O)O)nc2nc(-c3cccc(C#N)c3)n(Cc3ccc(C(F)(F)F)cc3)c12)C1CCC1 [Example 2.45, 8-(3-cyanophenyl)-6-{[(1R)-1-cyclobutylethyl]amino}-7-[4-(trifluoromethyl)benzyl]-7H-purine-2-carboxylic acid] here?
Answer: 63 nM

Question: How did the IC50 turn out when COc1ncc(-c2nc3nc(C(=O)O)nc(N[C@H](C)C4CCC4)c3n2Cc2ccc(C(F)(F)F)cc2)cc1Cl [Example 2.46, 8-(5-chloro-6-methoxypyridin-3-yl)-6-{[(1R)-1-cyclobutylethyl]amino}-7-[4-(trifluoromethyl)benzyl]-7H-purine-2-carboxylic acid] was run?
Answer: 51 nM

Question: C[C@@H](Nc1nc(C(=O)O)nc2nc(-c3ccccc3F)n(Cc3ccc(C(F)(F)F)cc3)c12)C1CCC1 [Example 2.47, 6-{[(1R)-1-cyclobutylethyl]amino}-8-(2-fluorophenyl)-7-[4-(trifluoromethyl)benzyl]-7H-purine-2-carboxylic acid] was tested. Which IC50 did it give?
Answer: 26 nM

Question: COc1ccc(-c2nc3nc(C(=O)O)nc(N[C@H](C)C4CC4)c3n2Cc2ccc(C(F)(F)F)cc2)cn1 [Example 2.48, 6-{[(1R)-1-cyclopropylethyl]amino}-8-(6-methoxypyridin-3-yl)-7-[4-(trifluoromethyl)benzyl]-7H-purine-2-carboxylic acid] was tested. Which IC50 did it give?
Answer: 680 nM

Question: How did the IC50 turn out when COc1ncc(-c2nc3nc(C(=O)O)nc(N[C@H](C)C4CC4)c3n2Cc2ccc(C(F)(F)F)cc2)cc1F [Example 2.49, 6-{[(1R)-1-cyclopropylethyl]amino}-8-(5-fluoro-6-methoxypyridin-3-yl)-7-[4-(trifluoromethyl)benzyl]-7H-purine-2-carboxylic acid] was run?
Answer: 310 nM

Question: Cc1cc(C)cc(-c2nc3nc(C(=O)O)nc(N[C@H](C)C4CC4)c3n2Cc2ccc(C(F)(F)F)cc2)c1 [Example 2.50, 6-{[(1R)-1-cyclopropylethyl]amino}-8-(3,5-dimethylphenyl)-7-[4-(trifluoromethyl)benzyl]-7H-purine-2-carboxylic acid] was tested. Which IC50 did it give?
Answer: 120 nM

Question: With C[C@@H](Nc1nc(C(=O)O)nc2nc(-c3cnc(O)c(F)c3)n(Cc3ccc(C(F)(F)F)cc3)c12)C1CC1 [Example 2.51, 6-{[(1R)-1-cyclopropylethyl]amino}-8-(5-fluoro-6-hydroxypyridin-3-yl)-7-[4-(trifluoromethyl)benzyl]-7H-purine-2-carboxylic acid] as the compound, how does the IC50 read?
Answer: 1230 nM

Question: How did the IC50 turn out when Cc1ccc(-c2nc3nc(C(=O)O)nc(N[C@H](C)C4CC4)c3n2Cc2ccc(C(F)(F)F)cc2)c(C)c1 [Example 2.52, 6-{[(1R)-1-cyclopropylethyl]amino}-8-(2,4-dimethylphenyl)-7-[4-(trifluoromethyl)benzyl]-7H-purine-2-carboxylic acid] was run?
Answer: 309 nM

Question: Which IC50 does the source give for C[C@@H](Nc1nc(C(=O)O)nc2nc(-c3ccc(Cl)c(F)c3)n(Cc3ccc(C(F)(F)F)cc3)c12)C1CC1 [Example 2.53, 8-(4-chloro-3-fluorophenyl)-6-{[(1R)-1-cyclopropylethyl]amino}-7-[4-(trifluoromethyl)benzyl]-7H-purine-2-carboxylic acid] here?
Answer: 200 nM

Question: For Cc1cc(OC(F)(F)F)ccc1-c1nc2nc(C(=O)O)nc(N[C@H](C)C3CC3)c2n1Cc1ccc(C(F)(F)F)cc1 [Example 2.54, 6-{[(1R)-1-cyclopropylethyl]amino}-8-[2-methyl-4-(trifluoromethoxy)phenyl]-7-[4-(trifluoromethyl)benzyl]-7H-purine-2-carboxylic acid], which IC50 is on record?
Answer: 826 nM

Question: For C[C@@H](Nc1nc(C(=O)O)nc2nc(-c3ccccc3Cl)n(Cc3ccc(C(F)(F)F)cc3)c12)C1CC1 [Example 2.55, 8-(2-chlorophenyl)-6-{[(1R)-1-cyclopropylethyl]amino}-7-[4-(trifluoromethyl)benzyl]-7H-purine-2-carboxylic acid], which IC50 is on record?
Answer: 98.3 nM

Question: With C[C@@H](Nc1nc(C(=O)O)nc2nc(-c3cccc(F)c3)n(Cc3ccc(C(F)(F)F)cc3)c12)C1CC1 [Example 2.56, 6-{[(1R)-1-cyclopropylethyl]amino}-8-(3-fluorophenyl)-7-[4-(trifluoromethyl)benzyl]-7H-purine-2-carboxylic acid] as the compound, how does the IC50 read?
Answer: 261 nM

Question: C[C@@H](Nc1nc(C(=O)O)nc2nc(-c3ccc(C#N)cc3)n(Cc3ccc(C(F)(F)F)cc3)c12)C1CC1 [Example 2.57, 8-(4-cyanophenyl)-6-{[(1R)-1-cyclopropylethyl]amino}-7-[4-(trifluoromethyl)benzyl]-7H-purine-2-carboxylic acid] was tested. Which IC50 did it give?
Answer: 432 nM

Question: With C[C@@H](Nc1nc(C(=O)O)nc2nc(-c3ccc(Cl)cc3Cl)n(Cc3ccc(C(F)(F)F)cc3)c12)C1CC1 [Example 2.58, 6-{[(1R)-1-cyclopropylethyl]amino}-8-(2,4-dichlorophenyl)-7-[4-(trifluoromethyl)benzyl]-7H-purine-2-carboxylic acid] as the compound, how does the IC50 read?
Answer: 213 nM

Question: Which IC50 does the source give for Cc1cccc(-c2nc3nc(C(=O)O)nc(N[C@H](C)C4CC4)c3n2Cc2ccc(C(F)(F)F)cc2)c1C [Example 2.59, 6-{[(1R)-1-cyclopropylethyl]amino}-8-(2,3-dimethylphenyl)-7-[4-(trifluoromethyl)benzyl]-7H-purine-2-carboxylic acid] here?
Answer: 147 nM

Question: C[C@@H](Nc1nc(C(=O)O)nc2nc(-c3ccc4ccccc4c3)n(Cc3ccc(C(F)(F)F)cc3)c12)C1CC1 [Example 2.60, 6-{[(1R)-1-cyclopropylethyl]amino}-8-naphthalen-2-yl-7-[4-(trifluoromethyl)benzyl]-7H-purine-2-carboxylic acid] was tested. Which IC50 did it give?
Answer: 306 nM

Question: C[C@@H](Nc1nc(C(=O)O)nc2nc(-c3ccc(F)c(Cl)c3)n(Cc3ccc(C(F)(F)F)cc3)c12)C1CCC1 [Example 2.61, 8-(3-chloro-4-fluorophenyl)-6-{ [(1R)-1-cyclobutylethyl]amino}-7-[4-(trifluoromethyl)benzyl]-7H-purine-2-carboxylic acid] was tested. Which IC50 did it give?
Answer: 22.7 nM

Question: Cc1cccc(C)c1-c1nc2nc(C(=O)O)nc(N[C@H](C)C3CC3)c2n1Cc1ccc(C(F)(F)F)cc1 [Example 2.62, 6-{[(1R)-1-cyclopropylethyl]amino}-8-(2,6-dimethylphenyl)-7-[4-(trifluoromethyl)benzyl]-7H-purine-2-carboxylic acid] was tested. Which IC50 did it give?
Answer: 65.6 nM

Question: C[C@@H](Nc1nc(C(=O)O)nc2nc(-c3cc(Cl)ccc3Cl)n(Cc3ccc(C(F)(F)F)cc3)c12)C1CCC1 [Example 2.63, 6-{[(1R)-1-cyclobutylethyl]amino}-8-(2,5-dichlorophenyl)-7-[4-(trifluoromethyl)benzyl]-7H-purine-2-carboxylic acid] was tested. Which IC50 did it give?
Answer: 10.9 nM

Question: How did the IC50 turn out when COc1cc(C#N)cc(-c2nc3nc(C(=O)O)nc(N[C@H](C)C4CCC4)c3n2Cc2ccc(C(F)(F)F)cc2)c1 [Example 2.64, 8-(3-cyano-5-methoxyphenyl)-6-{[(1R)-1-cyclobutylethyl]amino}-7-[4-(trifluoromethyl)benzyl]-7H-purine-2-carboxylic acid] was run?
Answer: 89.1 nM

Question: Cc1cccc(-c2nc3nc(C(=O)O)nc(N[C@H](C)C4CC4)c3n2Cc2ccc(C(F)(F)F)cc2)c1F [Example 2.65, 6-{[(1R)-1-cyclopropylethyl]amino}-8-(2-fluoro-3-methylphenyl)-7-[4-(trifluoromethyl)benzyl]-7H-purine-2-carboxylic acid] was tested. Which IC50 did it give?
Answer: 182 nM

Question: How did the IC50 turn out when COc1ccc(-c2nc3nc(C(=O)O)nc(N[C@H](C)C4CC4)c3n2Cc2ccc(C(F)(F)F)cc2)cc1Cl [Example 2.66, 8-(3-chloro-4-methoxyphenyl)-6-{[(1R)-1-cyclopropylethyl]amino}-7-[4-(trifluoromethyl)benzyl]-7H-purine-2-carboxylic acid] was run?
Answer: 112 nM

Question: How did the IC50 turn out when C[C@@H](Nc1nc(C(=O)O)nc2nc(-c3cccc(OC(F)F)c3)n(Cc3ccc(C(F)(F)F)cc3)c12)C1CCC1 [Example 2.67, 6-{[(1R)-1-cyclobutylethyl]amino}-8-[3-(difluoromethoxy)phenyl]-7-[4-(trifluoromethyl)benzyl]-7H-purine-2-carboxylic acid] was run?
Answer: 41.7 nM

Question: Which IC50 does the source give for C[C@@H](Nc1nc(C(=O)O)nc2nc(-c3ccc(F)cc3F)n(Cc3ccc(C(F)(F)F)cc3)c12)C1CCC1 [Example 2.68, 6-{[(1R)-1-cyclobutylethyl]amino}-8-(2,4-difluorophenyl)-7-[4-(trifluoromethyl)benzyl]-7H-purine-2-carboxylic acid] here?
Answer: 22.4 nM

Question: How did the IC50 turn out when C[C@@H](Nc1nc(C(=O)O)nc2nc(-c3ccc4ncccc4c3)n(Cc3ccc(C(F)(F)F)cc3)c12)C1CC1 [Example 2.69, 6-{[(1R)-1-cyclopropylethyl]amino}-8-quinolin-6-yl-7-[4-(trifluoromethyl)benzyl]-7H-purine-2-carboxylic acid] was run?
Answer: 296 nM
